The values below come from patent EP0444854B1, “6-Substituted hexahydrobenz[cd]indoles” (ELI LILLY AND COMPANY, priority 1990, dated 1991).

For orientation: inhibition means the relative decrease from the control value, in per cent.

One assay deals with T1, 5-HT1A receptors (Rattus norvegicus, UniProt P19327).
T1 construct: from tissue; host or cells: rat cerebral cortex, crude synaptosomal membranes
T1 sequence (P19327 1-422): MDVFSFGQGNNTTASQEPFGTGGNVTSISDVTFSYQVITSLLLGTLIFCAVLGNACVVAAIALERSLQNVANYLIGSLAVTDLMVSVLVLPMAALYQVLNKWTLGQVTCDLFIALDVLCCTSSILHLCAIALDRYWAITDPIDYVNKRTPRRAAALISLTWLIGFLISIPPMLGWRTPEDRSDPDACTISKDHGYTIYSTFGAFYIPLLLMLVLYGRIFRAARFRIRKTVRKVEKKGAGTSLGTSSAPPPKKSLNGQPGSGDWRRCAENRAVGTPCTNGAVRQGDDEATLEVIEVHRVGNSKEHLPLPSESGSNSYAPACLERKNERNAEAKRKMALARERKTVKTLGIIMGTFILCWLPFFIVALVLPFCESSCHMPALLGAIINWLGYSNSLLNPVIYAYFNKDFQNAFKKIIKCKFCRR
Briefly: Inhibition of 3H-8-OH-DPAT binding to synaptosomal membranes from rat cerebral cortex. Also on record: species or system Male Sprague-Dawley rats. The note with it: 0.4 nM 3H-8-OH-DPAT, 37°C, 10 min, read-out: IC50 (concentration in nanomoles which inhibited binding of 8-OH-DPAT by 50%). As for the experimental part: This general procedure is set forth in Wong et al., J. Neural Transm. 71:207-218 (1988).
Male Sprague-Dawley rats (110-150 g) from Harlan Industries (Cumberland, IN) were fed a Purina Chow ad libitum for at least 3 days before being used in the studies. Rats were killed by decapitation. The brains were rapidly removed, and the cerebral cortices were dissected out at 4°C.
Brain tissues were homogenized in 0.32 M sucrose. After centrifugation at 1000 x g for 10 min and then at 17000 x g for 20 min, a crude synaptosomal fraction was sedimented. The pellet was suspended in 100 vol of 50 mM Tris-HCl, pH 7.4, incubated at 37°C for 10 min, and centrifuged at 50000 x g for 10 min. The process was repeated and the final pellet was suspended in ice-chilled 50 mM Tris-HCl, pH 7.4. By the radioligand binding method, sites specifically labeled by tritiated 8-hydroxy-2-dipropylamino-1,2,3,4-tetrahydronaphthalene (^3H-8-OH-DPAT) have been identified as 5-HT1A receptors.
Binding of (^3H-8-OH-DPAT) was performed according to the previously described method [Wong et al., J. Neural Transm. 64:251-269 (1985)]. Briefly, synaptosomal membranes isolated from cerebral cortex were incubated at 37°C for 10 min. in 2 ml of 50 mM Tris-HCl, pH 7.4; 10 µM pargyline; 0.6 mM ascorbic acid; 0.4 nM ^3H-8-OH-DPAT; and from […] of test compound. Binding was terminated by filtering samples under reduced pressure through glass fiber (GFB) filters. The filters were washed twice with 5 ml of ice cold buffer and placed in scintillation vials with 10 ml of PCS (Amersham/Searle) scintillation fluid. Radioactivity was measured with a liquid scintillation spectrometer. Unlabeled 8-OH-DPAT at 10 µM was also included in separate samples to establish non-specific binding. Specific binding of ^3H-8-OH-DPAT is defined as the difference of radioactivity bound in the absence and in the presence of 10 µM unlabeled 8-OH-DPAT.
For these compounds which inhibited the binding of ^3H-8-OH-DPAT by less than 50%, the percent of inhibition is given in parenthesis.
`CCCN(CCC)[C@H]1Cc2c(C(=O)N(C)C)ccc3c2[C@@H](CN3)C1` [Example 12, (2aS,4R)-N,N-Dimethyl-4-(di-n-propylamino)-1,2,2a,3,4,5-hexahydrobenz[cd]indole-6-carboxamide]: the IC50 was 5.1 nM.

Regarding `CCCN(CCC)[C@H]1Cc2c(C(N)=O)ccc3c2[C@@H](CN3)C1` [Example 10, (2aS, 4R)-4-(di-n-propyl)-6-aminocaronyl-1,2,2a,3,4,5-hexahydrobenz[c,d]indole], the IC50 was 2.1 nM.

As to `CCCN(CCC)[C@H]1Cc2c(C(=O)OC)ccc3c2[C@@H](CN3)C1` [Example 11, Methyl (2aS,4R)-4-(Di-n-propylamino)-1,2,2a,3,4,5-hexahydrobenz[c,d]indole-6-carboxylate], the IC50 came to 5.7 nM.

As for `CCCN(CCC)[C@@H]1Cc2c(C(N)=O)ccc3c2[C@H](CN3)C1` [Example 9, (2aR,4S)-4-(di-n-propylamino)-6-aminocarbonyl-1,2,2a,3,4,5-hexahydrobenz[c,d]indole], the IC50 came to 11 nM.

The assay is the same for the next values; noted with them: at 100 nanomoles of test compound, 0.4 nM 3H-8-OH-DPAT, read-out: percent of inhibition of binding of 8-OH-DPAT at 100 nanomoles if less than 50%.
Consider `CCCN(CCC)[C@@H]1Cc2c(C#N)ccc3c2[C@@H](C1)CN3C(=O)c1ccccc1` [Example 5, (2aR,4S)-1-benzoyl-4-(di-n-propyl)amino-6-cyano-1,2,2a,3,4,5-hexahydrobenz[cd]indole], for which the inhibition at 0.1 µM is 11%.

On to `CCCN(CCC)[C@@H]1Cc2c(C#N)ccc3c2[C@H](CN3)C1` [Example 7, (2aR,4S)-4-(di-n-propyl)amino-6-cyano-1,2,2a,3,4,5-hexahydrobenz[cd]indole], for which the inhibition at 0.1 µM came to 21%.

Turning to `N[C@@H]1Cc2c(Br)ccc3c2[C@@H](C1)CN3C(=O)c1ccccc1` [Example 1, (2aR,4S)-1-benzoyl-4-amino-6-bromo-1,2,2a,3,4,5-hexahydrobenz[cd]indole], the inhibition at 0.1 µM stood at 6%.

For the compound `CCCN(CCC)[C@@H]1Cc2c(Br)ccc3c2[C@@H](C1)CN3C(=O)c1ccccc1` [Example 3, (2aR, 4S)-1-Benzoyl-4-(di-n-propyl)-amino-6-bromo-1,2,2a,3,4,5-hexahydrobenz[cd]indole], the inhibition at 0.1 µM was 5%.
